Results from patent US20160158280A1, “A METHOD FOR ORGAN ARREST, PROTECTION AND PRESERVATION AND REDUCING TISSUE INJURY” (priority 2013, published 2016).
Values joined by “and” are separate entries in the source; they are usually repeats but may differ in a detail not shown here. Equal entries are not always repeated.

What was measured:
human NK(1) receptor = human NK(1) receptor (Homo sapiens, UniProt P25103); conditions: cited from earlier work
humans = conditions: oral and/or intravenous 10, 25, 50, and 100 mg/kg body weight; cited from earlier work
[1] = 400 mg daily tablets; cited from earlier work
[2] = tested on: isolated guinea-pig mesenteric artery; assay: Isolated guinea-pig mesenteric artery relaxation (pressure myograph, videomicroscopy); conditions: for relaxation of isolated intact mesenteric artery: AVP-constricted, 0.001 to 1 mM luminal or abluminal; for abluminal versus luminal relaxation: intact artery, adenosine: at 10 μM and 100 μM
Method: Male guinea pigs (250-300 g) were anesthetised and placed in a cradle and the abdomen opened. Second order mesenteric artery branches were isolated and mounted in a pressure myograph (see FIG. 4) under constant pressure of 60 mmHg and perfusion (luminal flow) of 100 uL/min with Krebs-Henseleit buffer (37° C.). Artery diameter was continuously measured using videomicroscopy (see FIG. 4). For the relaxation/vasodilation experiments arteries were equilibrated and then constricted with 10^−8 M arginine vasopressin (AVP). Adenosine, lidocaine or adenosine-lidocaine together were administered 2) luminally and 2) abluminally and concentration curves were obtained. Stock solutions of adenosine and lidocaine alone or adenosine-lidocaine combined were made in deionized water to 20 mM. A range of volumes were pipetted to provide contact concentrations with the vessel lumen or outer wall that ranged from 0.001 to 1 mM. At the end of experiments, arteries were dilated using calcium-free solution to obtain 100% relaxation. A number of arteries were denuded by introducing 5 ml air into the lumen with flow rate 1000 μl/min. The air outflow was then clamped until the intraluminal pressure reached 70 mmHg, flow rate was reduced to 2 μl/min and the vessel remained pressurized for 10 minutes

[3] = cited from earlier work

human NK(1) receptor, sequence (P25103 whole entry): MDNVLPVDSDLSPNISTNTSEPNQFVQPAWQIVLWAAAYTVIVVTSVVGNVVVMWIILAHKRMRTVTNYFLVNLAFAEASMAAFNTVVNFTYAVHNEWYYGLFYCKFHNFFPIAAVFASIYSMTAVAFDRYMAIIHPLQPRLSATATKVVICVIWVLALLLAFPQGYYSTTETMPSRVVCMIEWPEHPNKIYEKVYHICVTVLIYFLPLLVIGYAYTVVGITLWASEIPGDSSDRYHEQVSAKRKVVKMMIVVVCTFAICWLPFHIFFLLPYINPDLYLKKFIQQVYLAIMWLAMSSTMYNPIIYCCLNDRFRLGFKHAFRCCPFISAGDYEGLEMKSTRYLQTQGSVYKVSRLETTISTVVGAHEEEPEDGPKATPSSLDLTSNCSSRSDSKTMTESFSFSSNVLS

Compound	relaxation of isolated intact mesenteric artery [2]	relaxation of mesenteric artery ([2]; endothelium absent (denuded))	relaxation of mesenteric artery ([2]; endothelium present)	abluminal versus luminal relaxation [2]	also measured
Cc1cccc(C)c1NC(=O)C[C@H]1CCN(C(=O)c2cc(C(F)(F)F)cc(C(F)(F)F)c2)[C@@H](Cc2ccccc2)C1.O=C(O)C[C@H](O)C(=O)O (relative stereo) [R116301, (2R-trans)-4-[1-[3,5-bis(trifluoromethyi)benzoyl]-2-(phenylmethyl)-4-piperidinyl]-N-(2,6-dimethylphenyl)-1-acetamide (S)-Hydroxybutanedioate]					selectivity toward NK(2) and NK(3) receptors (human NK(1) receptor): over 200 fold; Ki (human NK(1) receptor; human NK(1) receptor): 0.45 nM
NC(=O)c1ncn([C@@H]2O[C@H](CO)[C@@H](O)[C@H]2O)c1N [Acadesine, 5-amino-4-imidazole carboxamide ribonucleoside]					safety in humans (humans): safe in humans
OCCN(CCO)c1nc(N2CCCCC2)c2nc(N(CCO)CCO)nc(N3CCCCC3)c2n1 [Dipyridamole]					plasma level [1]: about 0.4 μg/ml and 0.8 μM
Nc1ncnc2c1ncn2[C@@H]1O[C@H](CO)[C@@H](O)[C@H]1O [adenosine]	increased relaxation	relaxed the mesenteric artery in a dose dependent manner	relaxed the mesenteric artery in a dose dependent manner	significantly more relaxation	half life in the blood [3]: about 10 seconds
CCN(CC)CC(=O)Nc1c(C)cccc1C [lidocaine]	failed to produce relaxation	relaxed the artery	did not significantly change mesenteric artery diameter	no significant difference	
